From patent publication US8853194B2, “Sterol derivatives and their synthesis and use” (priority 2009, dated 2014)

Key:
Conditions in all cases: tumor tissue, ratio to β-actin, n=3
P21 = system: P21
Method: (§1) 3. Detecting the activity of tumor cells VEGF, P53, P21, Bcl-2 (taking β-Actin as an internal reference)
(§2) Using Protein Electrophoresis (Western Blot) Method
(§3) A bean sized tumor tissue dissected previously was shredded and put into a pre-cooled tissue grinder. 400 μl tissue lysis solution was added. After 10 minutes carefully grinding, the mixture was transferred into a 1.5 ml centrifugal tube, and then, after intensely vortexing the tube for 15 seconds, the mixture was placed on ice for 10 minutes and repeatedly oscillated. After centrifuging 20 minutes (12000 rpm), the supernatant was collected, transferred into a pre-cooled Eppendorf tube, and then separately charged and frozen stored at −80° C. for detecting the activity level of various antibodies.
(§4) 3.4.3 Reaction with the first antibody: The first antibody was diluted by TBST solution at a ratio of 1:200, and then reacted with the PVDF film at 4° C. for a night. In the next day, after balanced at room temperature for one hour, the reaction mixture was washed with TBST for 3 times.

P53 = system: P53
Method: as §1, §2, §3, §4

VEGF = system: VEGF
Method: as §1, §2, §3, §4

## CC(C)CCC[C@@H](C)[C@H]1CC[C@@H]2[C@]1(C)CC[C@H]1[C@]23C=C[C@]2(CC(=O)CC[C@]12C)OO3 [CL168-6, 5α,8α-cyclicobioxygen-6-cholesten-3-one]
P21
  relative expression level of P21: 0.79±0.07
P53
  relative expression level of P53: 0.74±0.03
VEGF
  relative expression level of VEGF: 0.46±0.08
